We go through one compound from US9284297B2, “Halofuginone analogs for inhibition of tRNA synthetases and uses thereof” (President and Fellows of Harvard College, priority 2008, dated 2016).

Structures are written as SMILES.

In data set [1] the test system is passive EAE. As to the kind of experiment: Passive EAE, transfer of PLP-reactive T cells. Format: in vivo, mice. The following applies: 2 μg HF daily i.p. From the text: The ability of systemic HF treatment to block IL-17 expression and associated autoimmune inflammation in vivo was examined using two distinct models of experimental autoimmune encephalomyelitis (EAE). […] The second model, a passive model of EAE induction, is initiated by the transfer of myelin proteolipid protein (PLP)-reactive T cells into lymphopenic hosts.
Passive EAE was induced by intravenous transfer of purified CD3^+ splenic T cells isolated from PLP TCR transgenic B10.S mice into syngeneic RAG2-deficient mice (3×10^6 cells/mouse) (Waldner et al., J. Clin. Invest. 113(7):990-997, 2004).
Mice were injected daily with HF (2 μg/mouse) or vehicle control (DMSO) i.p. Clinical signs of EAE were assessed according to the following score: 0, no signs of disease; 1, flaccid tail; 2, weak gait/hind limb paresis; 3, hind limb paralysis; 4, tetraplegia; 5, moribund. Cytokine production during EAE was determined either in peripheral T cells isolated from spleen or lymph nodes of mice prior to disease onset (day 6-10) or in mononuclear cells isolated from the brain and spinal cords of mice with severe disease (clinical score ≧2) between days 15-20. Briefly, splenocytes were stained for intracellular cytokines following erythrocyte lysis with ammonium chloride buffer. T cells were isolated from brain and spinal cords of mice with active EAE following perfusion with cold PBS. […]

For data set [2] the following is noted: in vivo; cited from earlier work.
Data set [3] concerns Human primary dermal fibroblasts. As to the kind of experiment: Inhibition of cell spreading in a fibroblast model. The format is cell-based. On the set-up: key: “+++” vs. “++” vs. “+” in general denotes ˜4-fold differences in potency; “+++” vs. “++” vs. “+” in general denotes ˜4-fold differences in potency; “+++” vs. “++” vs. “+” in general denotes ˜4-fold differences in potency; “−” denotes no activity at any dose tested, up to 1000× the effective dose of halofuginone. The following applies: spreading of cells assessed by light microscopy 28 hours after treatment. On the procedure: The ability of halofuginone and analogs thereof to inhibit the spreading of freshly plated primary dermal fibroblasts was examined. Human primary dermal fibroblasts were replated and halofuginone added immediately after replating; spreading of cells was assessed by light microscopy 28 hours after treatment with compound. “+++” vs. “++” vs. “+” in general denotes ˜4-fold differences in potency. “−” denotes no activity at any dose tested, up to 1000× the effective dose of halofuginone.

Data set [4] has as its target T1, prolyl-tRNA synthetase (EPRS) (Oryctolagus cuniculus, UniProt G1T2I4).
T1 construct: from tissue; host or cells: rabbit reticulocyte lysate
T1 sequence (G1T2I4 1-1447): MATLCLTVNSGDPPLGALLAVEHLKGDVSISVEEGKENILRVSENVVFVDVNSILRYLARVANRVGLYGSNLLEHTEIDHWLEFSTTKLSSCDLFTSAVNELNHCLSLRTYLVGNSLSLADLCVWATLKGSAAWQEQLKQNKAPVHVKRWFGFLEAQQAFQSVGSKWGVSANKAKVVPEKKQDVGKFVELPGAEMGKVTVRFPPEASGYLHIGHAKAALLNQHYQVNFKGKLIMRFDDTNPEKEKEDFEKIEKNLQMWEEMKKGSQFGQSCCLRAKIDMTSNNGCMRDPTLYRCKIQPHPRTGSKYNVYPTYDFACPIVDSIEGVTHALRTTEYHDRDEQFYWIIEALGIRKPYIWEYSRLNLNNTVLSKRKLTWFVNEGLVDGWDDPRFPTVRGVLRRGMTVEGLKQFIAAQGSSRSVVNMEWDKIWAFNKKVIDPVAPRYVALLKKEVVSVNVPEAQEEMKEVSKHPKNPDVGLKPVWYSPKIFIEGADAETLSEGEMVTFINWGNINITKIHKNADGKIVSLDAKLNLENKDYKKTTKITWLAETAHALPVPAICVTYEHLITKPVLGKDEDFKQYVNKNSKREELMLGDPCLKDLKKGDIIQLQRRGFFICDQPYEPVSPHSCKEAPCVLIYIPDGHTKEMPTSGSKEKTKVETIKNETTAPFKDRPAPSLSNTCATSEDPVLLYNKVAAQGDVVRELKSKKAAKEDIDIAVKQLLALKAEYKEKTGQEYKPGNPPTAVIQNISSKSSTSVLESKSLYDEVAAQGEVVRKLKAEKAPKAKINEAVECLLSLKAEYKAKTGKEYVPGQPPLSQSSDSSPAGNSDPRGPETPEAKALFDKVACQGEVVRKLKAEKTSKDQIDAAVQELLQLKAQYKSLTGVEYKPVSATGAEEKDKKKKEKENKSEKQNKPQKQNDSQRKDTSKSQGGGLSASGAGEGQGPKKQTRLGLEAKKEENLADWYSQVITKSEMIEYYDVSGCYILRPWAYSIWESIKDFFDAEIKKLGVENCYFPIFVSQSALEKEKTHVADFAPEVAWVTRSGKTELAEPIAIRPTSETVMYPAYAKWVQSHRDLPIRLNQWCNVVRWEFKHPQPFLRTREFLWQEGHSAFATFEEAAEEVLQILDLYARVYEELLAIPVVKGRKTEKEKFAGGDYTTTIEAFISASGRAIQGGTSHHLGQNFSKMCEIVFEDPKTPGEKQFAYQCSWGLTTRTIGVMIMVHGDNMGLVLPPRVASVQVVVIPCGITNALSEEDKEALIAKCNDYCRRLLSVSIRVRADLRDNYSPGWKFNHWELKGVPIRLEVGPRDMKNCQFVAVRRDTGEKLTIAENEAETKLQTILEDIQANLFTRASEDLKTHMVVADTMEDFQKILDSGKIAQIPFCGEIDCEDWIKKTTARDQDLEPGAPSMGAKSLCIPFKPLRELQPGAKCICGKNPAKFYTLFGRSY
As to the kind of experiment: Incorporation of 14C-labeled proline into tRNA in rabbit reticulocyte lysate. Format: biochemical. The following applies: crude in vitro translation system. On the procedure: Total RNA was extracted with acidic phenol-chloroform and tRNA was isolated using miRVANA microRNA isolation kit. Radioisotope incorporation into tRNA was measured in a scintillation counter.

For the compound `O=C(CC1NCCCC1O)Cn1cnc2cc(Br)c(Cl)cc2c1=O` (stereo not shown) [Compound 1, 7-bromo-6-chloro-3-[3-(3-hydroxy-2-piperidinyl)-2-oxopropyl]-4(3H)-quinazolinone], the “EAE disease symptoms, passive model” value in data set [1] is “developed disease symptoms with kinetics and severity similar to control treated animals”. The toxicity in humans result in data set [2] was “some toxicity in humans, such as nausea, vomiting, and fatigue, and possibly bleeding complications”. Moreover, in data set [3], the Fibroblast inhibition entry is given as “+++”. The “inhibition of 14C proline incorporation into tRNA” value in data set [4] is “inhibitor of prolyl-tRNA synthetase (EPRS)”.
